PubChem BioAssay (NCI)
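A five-concentration, 48-hour dose response in 96-well plates underlies each endpoint, interpolated linearly between surrounding concentrations. TGI: total growth inhibition.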

Key:
Test in all cases: inhibition of tumour cell growth, NCI panel, 48 h
[1] = test system: HCT-116 colon
[2] = test system: U251 CNS
[3] = test system: MOLT-4 leukemia
[4] = test system: KM12 colon
[5] = test system: NCI/ADR-RES ovarian
[6] = test system: RXF 393 renal
[7] = test system: SW-620 colon
[8] = test system: HT29 colon
[9] = test system: IGROV1 ovarian
[10] = test system: SK-OV-3 ovarian

O=C(O)CN1CCN2CCOCCN(CC1)CCN(CC(=O)O)CC2
TGI [1]: > 100 µM
TGI [2]: > 100 µM
TGI [3]: > 100 µM
TGI [4]: > 100 µM
TGI [5]: > 100 µM
TGI [6]: > 100 µM
TGI [7]: > 100 µM
TGI [8]: > 100 µM
TGI [9]: > 100 µM
TGI [10]: > 100 µM

CCO/C=N\C1=C(C#N)SC2=N/C(=C\c3ccco3)C(=O)N21
TGI [1]: > 100 µM
TGI [2]: > 100 µM
TGI [3]: > 100 µM
TGI [4]: > 100 µM
TGI [5]: > 100 µM
TGI [6]: > 100 µM
TGI [7]: > 100 µM
TGI [8]: > 100 µM
TGI [9]: > 100 µM
TGI [10]: > 100 µM

CC(C)C1CC(CO)(CNc2nc(N)nc(Cl)c2C=O)C1 (stereo not given)
TGI [1]: 7.23 µM
TGI [2]: 10.6 µM
TGI [3]: 5.08 µM
TGI [4]: > 46.7 µM
TGI [5]: 23.8 µM
TGI [6]: 28.3 µM
TGI [7]: 21.8 µM
TGI [8]: 6.42 µM
TGI [9]: 3.52 µM
TGI [10]: 61.7 µM

O=C(NNC(=O)c1cc2ccccc2[nH]1)c1cc2ccccc2[nH]1
TGI [1]: > 100 µM
TGI [2]: > 100 µM
TGI [3]: > 100 µM
TGI [4]: > 100 µM
TGI [5]: > 100 µM
TGI [6]: > 100 µM
TGI [7]: > 100 µM
TGI [8]: > 100 µM
TGI [9]: > 100 µM
TGI [10]: > 100 µM

NCCCc1nonc1C(=O)O
TGI [1]: > 100 µM
TGI [2]: > 100 µM
TGI [3]: > 100 µM
TGI [4]: > 100 µM
TGI [5]: > 100 µM
TGI [6]: > 100 µM
TGI [7]: > 100 µM
TGI [8]: > 100 µM
TGI [9]: > 100 µM
TGI [10]: > 100 µM

O=[N+]([O-])C1=Cc2c(O)ccc(O)c2C2c3ccccc3NC12 (stereo not given)
TGI [1]: 22.7 µM
TGI [2]: 29.4 µM
TGI [3]: > 44.5 µM
TGI [4]: 24.4 µM
TGI [5]: 51 µM
TGI [6]: 26.4 µM
TGI [7]: > 47.1 µM
TGI [8]: 26.4 µM
TGI [9]: 32.7 µM
TGI [10]: > 100 µM

COC(=O)c1nc2n(n1)-c1ccccc1C(=O)N(Cc1ccccc1)C2
TGI [1]: > 100 µM
TGI [2]: > 100 µM
TGI [3]: > 100 µM
TGI [4]: > 100 µM
TGI [5]: > 100 µM
TGI [6]: > 100 µM
TGI [7]: > 100 µM
TGI [8]: > 100 µM
TGI [9]: > 100 µM
TGI [10]: > 100 µM

Nc1nc(NCc2ccccc2)cc(NCc2ccccc2)n1
TGI [1]: 21.2 µM
TGI [2]: 71.2 µM
TGI [3]: > 100 µM
TGI [4]: 27.9 µM
TGI [5]: 15.3 µM
TGI [6]: 26.6 µM
TGI [7]: > 100 µM
TGI [8]: 11.9 µM
TGI [9]: 23.9 µM
TGI [10]: 33.7 µM

COc1ccc(CC(COS(=O)(=O)c2ccc(C)cc2)NS(=O)(=O)c2ccc(C)cc2)cc1 (stereo not given)
TGI [1]: > 48.4 µM
TGI [2]: 26.2 µM
TGI [3]: > 100 µM
TGI [4]: > 77 µM
TGI [5]: > 52.7 µM
TGI [6]: 17.1 µM
TGI [7]: 27 µM
TGI [8]: > 50.9 µM
TGI [9]: 30.1 µM
TGI [10]: 43.7 µM

CCOc1cc(NC(C)=O)ccc1C(=O)NN1C(=O)/C(=C/c2ccc(Cl)cc2)N=C1c1ccccc1
TGI [1]: > 100 µM
TGI [2]: > 100 µM
TGI [3]: > 100 µM
TGI [4]: > 100 µM
TGI [5]: > 100 µM
TGI [6]: > 100 µM
TGI [7]: > 100 µM
TGI [8]: > 100 µM
TGI [9]: > 100 µM
TGI [10]: > 100 µM

COc1ccccc1Nc1nc(N)nc(N)c1N
TGI [1]: 39.8 µM
TGI [2]: > 100 µM
TGI [3]: 31.6 µM
TGI [4]: > 100 µM
TGI [5]: > 100 µM
TGI [6]: > 100 µM
TGI [7]: 72 µM
TGI [8]: > 100 µM
TGI [9]: > 100 µM
TGI [10]: > 100 µM

Cc1c(S(=O)(=O)/N=C(\NO)Nc2ccc(Cl)cc2)sc2ccc(Cl)cc12
TGI [1]: 27.4 µM
TGI [2]: 31.5 µM
TGI [3]: > 100 µM
TGI [4]: 41.7 µM
TGI [5]: 37.9 µM
TGI [6]: 47.1 µM
TGI [7]: 63.1 µM
TGI [8]: 34.3 µM
TGI [9]: 27.5 µM
TGI [10]: 31.2 µM

CN(C)CCCCN1c2ccccc2Sc2ccc(N=[N+]=[N-])cc21
TGI [1]: 16.3 µM
TGI [2]: 11.9 µM
TGI [3]: 5.85 µM
TGI [4]: 8.76 µM
TGI [5]: 23.3 µM
TGI [6]: 16.1 µM
TGI [7]: 16.8 µM
TGI [8]: 5.22 µM
TGI [9]: 11.7 µM
TGI [10]: 26.5 µM

CC(=O)OCC1OC(Sc2nc(-c3ccccc3)c(C#N)c(=O)n2C2OC(COC(C)=O)C(OC(C)=O)C(OC(C)=O)C2OC(C)=O)C(OC(C)=O)C(OC(C)=O)C1OC(C)=O (stereo not given)
TGI [1]: > 100 µM
TGI [2]: > 100 µM
TGI [3]: > 100 µM
TGI [4]: > 100 µM
TGI [5]: > 100 µM
TGI [6]: > 100 µM
TGI [7]: > 100 µM
TGI [8]: > 100 µM
TGI [9]: > 100 µM
TGI [10]: > 100 µM

COc1cc(CCNC2=CC(=O)c3ncccc3C2=O)ccc1O
TGI [1]: > 34.4 µM
TGI [2]: 19.6 µM
TGI [3]: 22.8 µM
TGI [4]: 24.9 µM
TGI [5]: > 23.3 µM
TGI [6]: 18 µM
TGI [7]: 12.1 µM
TGI [8]: 28.4 µM
TGI [9]: 10.1 µM
TGI [10]: 41.7 µM

NS(=O)(=O)c1ccc(NCc2cccc3c(=O)c4ccc(Cl)cc4oc23)cc1
TGI [1]: > 100 µM
TGI [2]: > 100 µM
TGI [3]: > 100 µM
TGI [4]: > 70.7 µM
TGI [5]: > 100 µM
TGI [6]: > 100 µM
TGI [7]: > 100 µM
TGI [8]: > 100 µM
TGI [9]: > 68.8 µM
TGI [10]: > 100 µM

COC(=O)c1c(O)ccc2c1c1c(n2CCc2ccccc2)C(=O)c2ccccc2C1
TGI [1]: 35.8 µM
TGI [2]: 80.3 µM
TGI [3]: > 100 µM
TGI [4]: > 100 µM
TGI [5]: 53.1 µM
TGI [6]: 31.3 µM
TGI [7]: > 100 µM
TGI [8]: 70.4 µM
TGI [9]: 46 µM
TGI [10]: 64.2 µM

CC(C)=CCN1c2ccccc2[C@@]2(CC=C(C)C)CCN(C)[C@@H]12
TGI [1]: 73.2 µM
TGI [2]: 40.5 µM
TGI [3]: > 100 µM
TGI [4]: > 100 µM
TGI [5]: 53.5 µM
TGI [6]: > 100 µM
TGI [7]: > 100 µM
TGI [8]: 90.4 µM
TGI [9]: > 100 µM
TGI [10]: 77.1 µM
